How the values were obtained:
[1] = system: cytotoxic T lymphocytes specific for gag and HLA B8

Structure (SMILES): CC[C@H](C)[C@H](NC(=O)[C@H](CCC(=O)O)NC(=O)CNC(=O)[C@@H](NC(=O)[C@@H]1CCCN1C(=O)[C@@H](NC(=O)[C@@H]1CCCN1C(=O)[C@@H]1CCCN1C(=O)[C@@H](N)CC(N)=O)[C@@H](C)CC)C(C)C)C(=O)N[C@@H](Cc1ccc(O)cc1)C(=O)N[C@@H](CCCCN)C(=O)N[C@@H](CCCNC(=N)N)C(=O)N[C@@H](Cc1c[nH]c2ccccc12)C(=O)N[C@H](C(=O)N[C@H](C(=O)N[C@@H](CS)C(=O)O)[C@@H](C)CC)[C@@H](C)CC [p24-13, NH2 -asparagine-proline-proline-isoleucine-proline-valine-glycine-glutamate-isoleucine-tyrosine-lysine-arginine-tryptophan-isoleucine-iso leucine-cysteine-COOH]
- recognition of peptide by cytotoxic T lymphocytes (lysis of target cells) [1]: recognised by cytotoxic T lymphocytes specific for gag and HLA B8
- specific interaction with HLA class I molecule [1]: interacts specifically with HLA B8
- stimulation of cytotoxic T lymphocytes to grow in vitro (cytotoxic T lymphocytes): have been used to stimulate cytotoxic T lymphocytes to grow in vitro
